# Measured values reported in patent publication US6054591A, “Lymph-absorbable aryl substituted imidazole derivatives” (Shionogi & Co., Ltd., priority 1996, dated 2000).
# Where two headings read alike, the source gives them in different places.
# Test system: HIV (HTLV-IIIB strain)
# Experiment: Infection inhibitory activity (anti-HIV activity, MTT assay in MT-4 cells)
# Format: cell-based
# Procedure: Infection inhibitory activity of the compound
# The anti-HIV activity of the representative compounds prepared in the above examples was assayed by the following procedures.
# Human T cell line MOLT-4 clone 8 persistently infected by HIV (HTLV-IIIB strain) was cultured in an RPMI-1640 medium supplemented with 10% fetal calf serum, the culture supernatant was filtered, the titer of virus was determined on the filtrate, and the culture supernatant was stored at -80° C. On the other hand, the test compound was diluted with the above culture medium to predetermined concentration range 1 μg/ml to 1 ng/ml and distributed in 50 μl aliquots into a 96-well microtiter plate. Then, a suspension of MT-4 cells was added in 100 μl aliquots (3.5×10^4 cells per well) and then 50 μl (60 pfu (plaque forming units)) per well of the above HIV-containing supernatant diluted with the above culture medium each was added.
# The plate was incubated in a CO2 incubator at 37° C. for 5 days. Then, 30 μl/well of 3-(4,5-dimethylthiazol-2-yl)-2,5-[…] (MTT) and 5 mg/ml PBS was added and the incubation was further continued for 1 hour. The surviving cells reducing MTT yield precipitation of formazan. Therefore, 150 μl portions of the culture supernatant were removed from all wells and, instead, 150 μl of a solution (10% Triton X-100 and 0.4% (v/v) HCl added isopropanol) was added. The plate was shaken on a plate mixer to dissolve the formazan. The OD of formazan was measured with a microreader at 560 nm and 690 nm (reference wavelength) and the result was compared with that of control. The cytotoxic effect for the virus was expressed as EC50.
# [1] = Human immunodeficiency virus 1, MT4, 120 h, MT-4 cells, HIV HTLV-IIIB, 5 days at 37° C., MTT, read-out: EC50
# [2] = Human immunodeficiency virus 1, IIIB, MT4, 120 h
Structure (SMILES),EC50 [1],EC50 [2]
"Cc1cc(C)cc(Sc2c(C(C)C)nc(C)n2COCCO)c1 [Compound 1, 5-(3,5-dimethylphenylthio)-4-isopropyl-1-(2-hydroxyethoxymethyl)-2-methyl-1H-imidazole]",8 ng/mL,
CCn1c(CCO)nc(C(C)C)c1Sc1cc(Cl)cc(Cl)c1 [Compound 54],2 ng/mL,
"Cc1cc(C)cc(Sc2c(C(C)C)nc(C)n2COCCOC(=O)CCC(=O)O)c1 [Compound 68, Mono-{2-[5-(3,5-dimethylphenylthio)-4-isopropyl-2-methyl-imidazol-1-yl]methoxyethyl}succinate]",8 ng/mL,
"Cc1nc(C(C)C)c(Sc2cc(Cl)cc(Cl)c2)n1COCCOC(=O)CCC(=O)O [Compound 76, Mono-{2-[5-(3,5-dichlorophenylthio)-4-isopropyl-2-methyl-imidazol-1-ylmethoxy]ethyl succinate]",8 ng/mL,
"CCn1c(COC(=O)NC(C)=O)nc(C(C)C)c1Sc1cc(Cl)cc(Cl)c1 [Compound 80, 5-(3,5-Dichlorophenylthio)-1-ethyl-4-isopropyl-1H-imidazol-2-ylmethyl acetylcarbamate]",1 ng/mL,
"CCCCCCCC(=O)NC(=O)OCc1nc(C(C)C)c(Sc2cc(Cl)cc(Cl)c2)n1Cc1ccncc1 [Compound 91, 5-(3,5-Dichlorophenylthio)-4-isopropyl-1-(4-pyridylmethyl)-1H-imidazol-2-ylmethyl octanoylcarbamate]",8 to 16 ng/mL,
"CCCCCCCCCC(=O)NC(=O)OCc1nc(C(C)C)c(Sc2cc(Cl)cc(Cl)c2)n1Cc1ccncc1 [Compound 92, 5-(3,5-Dichlorophenylthio)-4-isopropyl-1-(4-pyridylmethyl)-1H-imidazol-2-ylmethyl decanoylcarbamate]",< 8 ng/mL,
"CC(C)c1nc(COC(=O)NC(=O)Oc2ccc(-c3ccccc3)cc2)n(Cc2ccncc2)c1Sc1cc(Cl)cc(Cl)c1 [Compound 103, 5-(3,5-Dichlorophenylthio)-4-isopropyl-1-(4-pyridylmethyl)-1H-imidazol-2-ylmethyl 4-biphenyl iminodicaboxylate]",,8 ng/mL
"CC(C)c1nc(COC(=O)NC(=O)Oc2cccc3ccccc23)n(Cc2ccncc2)c1Sc1cc(Cl)cc(Cl)c1 [Compound 104, 5-(3,5-Dichlorophenylthio)-4-isopropyl-1-(4-pyridylmethyl)-1H-imidazol-2-ylmethyl 1-naphthyl iminodicaboxylate]",,< 8 ng/mL
"CCCCCCCC(=O)OCc1nc(C(C)C)c(Sc2cc(Cl)cc(Cl)c2)n1CC [Compound 108, 5-(3,5-Dichlorophenylthio)-1-ethyl-4-isopropyl-1H-imidazol-2-ylmethyl octanoate]",8 ng/mL,
"CC(C)c1nc(COC(N)=O)n(Cc2ccncc2)c1Sc1cc(Cl)cc(Cl)c1 [Compound 111, 5-(3,5-dichlorophenylthio)-4-isopropyl-1-(4-pyridylmethyl)-1H-imidazol-2-ylmethyl carbamate]",0.9 ng/mL,
"CCCCN(CCCC)CNC(=O)OCc1nc(C(C)C)c(Sc2cc(Cl)cc(Cl)c2)n1Cc1ccncc1 [Compound 112, 5-(3,5-Dichlorophenylthio)-4-isopropyl-1-(4-pyridylmethyl)-1H-imidazol-2-ylmethyl di-n-butylaminomethylcarbamate]",3 ng/mL,
"CC(C)c1nc(COC(=O)NCN2CCOCC2)n(Cc2ccncc2)c1Sc1cc(Cl)cc(Cl)c1 [Compound 113, 5-(3,5-Dichlorophenylthio)-4-isopropyl-1-(4-pyridylmethyl)-1H-imidazol-2-ylmethyl morpholinomethylcarbamate]",3 to 5 ng/mL,
"CC(C)c1nc(COC(=O)NCN(Cc2ccccc2)Cc2ccccc2)n(Cc2ccncc2)c1Sc1cc(Cl)cc(Cl)c1 [Compound 114, 5-(3,5-Dichlorophenylthio)-4-isopropyl-1-(4-pyridylmethyl)-1H-imidazol-2-ylmethyl dibenzylaminomethylcarbamate]",3 to 5 ng/mL,

# More lines, main results first:
EC50 [1],Structure (SMILES),EC50 [2]
5 ng/mL,"Cc1nc(C(C)C)c(Sc2cc(Cl)cc(Cl)c2)n1COCCO [Compound 8, 5-(3,5-Dichlorophenylthio)-4-isopropyl-1-[2-hydroxyethoxymethyl]-2-methyl-1H-imidazole]",
8 ng/mL,"Cc1nc(C(C)C)c(Sc2cc(Cl)cc(Cl)c2)n1COCCOC1=CCCCCCC1 [Compound 11, 1-[2-(Cycloocten-1-yloxy)ethoxymethyl]-5-(3,5-dichlorophenylthio)-4-isopropyl-2-methyl-1H-imidazole]",
16 ng/mL,"CC(C)c1nc(CO)n(C)c1Sc1cc(Cl)cc(Cl)c1 [Compound 14, 5-(3,5-dichlorophenylthio)-4-isopropyl-1-methyl-2-hydroxymethyl-1H-imidazole]",
4 ng/mL,"CCn1c(CO)nc(C(C)C)c1Sc1cc(Cl)cc(Cl)c1 [Compound 19, 2-hydroxymethyl-5-(3,5-dichlorophenylthio)-4-isopropyl-1-ethyl-1H-imidazole]",
2.5 to 5 ng/mL,CCn1c(CCOC2=CCCCCCC2)nc(C(C)C)c1Sc1cc(Cl)cc(Cl)c1 [Compound 59],
8 ng/mL,"Cc1nc(C(C)C)c(Sc2cc(Cl)cc(Cl)c2)n1COCCOC(=O)CCCCCCCCCCCCCCC(=O)O [Compound 75, Mono-{2-[5-(3,5-dichlorophenylthio)-4-isopropyl-2-methyl-imidazol-1-ylmethoxy]ethyl} hexadecanedioate]",
8 ng/mL,"Cc1nc(C(C)C)c(Sc2cc(Cl)cc(Cl)c2)n1COCCOCOC(=O)C(C)(C)C [Compound 77, 2-[5-(3,5-Dichlorophenylthio)-4-isopropyl-2-methyl-imidazol-1-ylmethoxy]ethyl 2,2-dimethylpropionyloxymethyl ether]",
8 to 16 ng/mL,"CCCCCCCC(=O)NC(=O)OCc1nc(C(C)C)c(Sc2cc(Cl)cc(Cl)c2)n1CC [Compound 82, 5-(3,5-Dichlorophenylthio)-1-ethyl-4-isopropyl-1H-imidazol-2-ylmethyl octanoylcarbamate]",
8 ng/mL,"CCn1c(COC(=O)NC(=O)c2ccc(Cl)cc2)nc(C(C)C)c1Sc1cc(Cl)cc(Cl)c1 [Compound 86, 5-(3,5-Dichlorophenylthio)-1-ethyl-4-isopropyl-1H-imidazol-2-ylmethyl 4-chlorobenzoylcarbamate]",
8 ng/mL,"CCn1c(COC(=O)NC(=O)c2cc(Cl)cc(Cl)c2)nc(C(C)C)c1Sc1cc(Cl)cc(Cl)c1 [Compound 87, 5-(3,5-Dichlorophenylthio)-1-ethyl-4-isopropyl-1H-imidazol-2-ylmethyl 3,5-dichlorobenzoylcarbamate]",
< 8 ng/mL,"CC(=O)NC(=O)OCc1nc(C(C)C)c(Sc2cc(Cl)cc(Cl)c2)n1Cc1ccncc1 [Compound 90, 5-(3,5-Dichlorophenylthio)-4-isopropyl-1-(4-pyridylmethyl)-1H-imidazol-2-ylmethyl acetylcarbamate]",
8 to 16 ng/mL,"CCCCCCCCCC(=O)OCc1nc(C(C)C)c(Sc2cc(Cl)cc(Cl)c2)n1CC [Compound 109, 5-(3,5-Dichlorophenylthio)-1-ethyl-4-isopropyl-1H-imidazol-2-ylmethyl decanoate]",
